The record followed here is article PMC7682989, “Large domain movements through the lipid bilayer mediate substrate release and inhibition of glutamate transporters” (eLife, 2020).

Test [1] has as its target T1, GltPh (Pyrococcus horikoshii, UniProt O59010, D37H/K40H/K125H/K132H/K223H/K264H/E368H).
T1 construct: gene PH1295; C-terminal His8 cut by thrombin; E. coli DH10B; homotrimer; DDM (ITC) or MSP1E3 nanodiscs (cryo-EM)
T1 sequence (O59010 1-425 D37H/K40H/K125H/K132H/K223H/K264H/E368H limits assumed): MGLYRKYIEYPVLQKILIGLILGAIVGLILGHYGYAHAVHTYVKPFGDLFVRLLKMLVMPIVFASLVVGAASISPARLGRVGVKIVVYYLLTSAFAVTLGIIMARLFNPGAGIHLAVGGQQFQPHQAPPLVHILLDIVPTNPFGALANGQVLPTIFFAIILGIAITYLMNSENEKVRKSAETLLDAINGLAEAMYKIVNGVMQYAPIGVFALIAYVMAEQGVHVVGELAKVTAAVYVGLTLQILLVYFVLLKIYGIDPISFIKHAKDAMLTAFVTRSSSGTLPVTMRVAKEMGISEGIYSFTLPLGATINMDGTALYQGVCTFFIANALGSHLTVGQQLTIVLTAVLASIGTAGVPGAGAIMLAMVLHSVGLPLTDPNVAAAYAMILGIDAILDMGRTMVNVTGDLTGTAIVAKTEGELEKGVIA
Put plainly: cryo-EM structure. The test is classed as binding. Particulars: outward-facing state, MSP1E3 nanodiscs; 200 mM NaCl, 10 mM DL-TBOA, pH 7.4.

Test [2] addresses T2, GltPh (Pyrococcus horikoshii, UniProt O59010, D37H/K40H/K55C/K125H/K132H/K223H/K264H/C321A/A364C/E368H).
T2 construct: gene PH1295; C-terminal His8 cut by thrombin; E. coli DH10B; homotrimer; DDM (ITC) or MSP1E3 nanodiscs (cryo-EM)
T2 sequence (O59010 1-425 D37H/K40H/K55C/K125H/K132H/K223H/K264H/C321A/A364C/E368H limits assumed): T1 sequence (O59010 1-425 D37H/K40H/K125H/K132H/K223H/K264H/E368H limits assumed) with K55C, C321A, A364C
Put plainly: cryo-EM structure. The test is classed as binding. The conditions noted are these: inward-facing, Hg2+-crosslinked K55C/A364C; MSP1E3 nanodiscs; 200 mM NaCl, 1 mM L-asp, pH 7.4.

For test [3], the target named is T2, GltPh. Put plainly: isothermal titration calorimetry. The class given is binding. Particulars: inward-facing, Hg2+-crosslinked K55C/A364C; DDM; 200 mM NaCl, pH 7.4, 15 °C; n 0.8; structure in nanodiscs 3.71 Å. (In general: ITC needs no label: the signal is the heat of the interaction.)
Test [4] deals with GltPh, the fully functional seven-histidine mutant referred to as wildtype (WT) (UniProt O59010). Put plainly: cryo-EM structure; single-particle cryo-EM of GltPh reconstituted into MSP1E3 nanodiscs (E. coli polar lipid extract : egg phosphatidylcholine 3:1); 20 mM Hepes/Tris pH 7.4, 200 mM NaCl with 1 mM L-asp, 10 mM DL-TBOA, 10 mM TFB-TBOA or NaCl only; 3D classes without symmetry, then C3 refinement.

Test [5] concerns the target GltPh-K55C/C321A/A364C, cross-linked with HgCl2 (GltPh^IFS) (UniProt O59010). The test is described as above.

Changes are numbered by the printed parent chain.

As for `NC(C(=O)O)C(OCc1ccccc1)C(=O)O` (racemic) [DL-TBOA, DL-threo-β-benzyloxyaspartate], the cryo-EM structure entry at GltPh [1] is on record as “wild type outward-facing GltPh in complex with TBOA (GltPh^OFS-TBOA)”.

As for `N[C@@H](CC(=O)O)C(=O)O` [L-asp], on GltPh [2], the cryo-EM structure result is “bound to L-asp (GltPh^IFS-Asp)”.

One may read the Kd as the free concentration of one partner at which half of the binding sites on the other are occupied at equilibrium, for simple one-to-one binding. The molecule `N[C@H](C(=O)O)[C@H](OCc1cccc(NC(=O)c2ccc(C(F)(F)F)cc2)c1)C(=O)O` [TFB-TBOA, (2S,3S)−3-[3-[4-(trifluoromethyl)benzoylamino]benzyloxy]aspartate] showed a Kd at GltPh [3] of 3.8 µM.

The stoichiometry N is the number of molecules, sites or subunits per partner or assembly. As for “GltPh, the fully functional seven-histidine mutant referred to as wildtype (WT) (from UniProt O59010 1-417) (natural protein)”, in test [4], the stoichiometry N stood at 3.

Turning to “GltPh-K55C/C321A/A364C, cross-linked with HgCl2 (GltPh^IFS) (from UniProt O59010 1-425) (natural protein)”, in test [5], the stoichiometry N amounted to 3.
